Entries after “also recorded” stand apart in the source; their conditions may differ.
Columns and labels:
PTP1B = system: PTP1B; set-up: method as in PMID 23604820; conditions: very low IC50 values; cited from earlier work
[1] = molecular target: T1, Protein tyrosine phosphatase 1B (human recombinant) (Homo sapiens, UniProt P18031); experiment: PTP1B inhibition assay (p-NPP substrate); type: biochemical; conditions: read-out: IC50 PTP1B inhibitory activity
T1 construct: purchased Biomol International LP, Plymouth Meeting, PA, USA
T1 sequence (P18031 1-435): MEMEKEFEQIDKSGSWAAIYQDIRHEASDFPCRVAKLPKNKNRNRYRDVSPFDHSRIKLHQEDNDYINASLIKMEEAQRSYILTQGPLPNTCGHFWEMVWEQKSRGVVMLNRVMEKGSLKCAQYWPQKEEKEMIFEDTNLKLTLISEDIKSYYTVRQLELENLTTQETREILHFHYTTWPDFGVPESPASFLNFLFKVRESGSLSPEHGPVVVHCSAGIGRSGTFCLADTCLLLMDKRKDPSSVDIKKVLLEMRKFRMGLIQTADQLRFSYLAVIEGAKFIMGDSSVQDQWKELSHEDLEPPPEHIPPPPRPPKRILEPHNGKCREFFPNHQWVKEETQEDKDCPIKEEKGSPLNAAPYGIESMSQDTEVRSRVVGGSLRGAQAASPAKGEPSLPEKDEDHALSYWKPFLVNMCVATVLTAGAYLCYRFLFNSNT
Excerpt: PTP1B dephosphorylates IR and IRS in the insulin signaling pathway as a negative regulator. In the leptin signaling pathway, PTP1B presented the same manner of tyrosine Janus kinase 2. Thus, inhibition of PTP1B activity might improve the IR and IRS, leading to the enhancement of glucose uptake in adipocyte cells. […]
(§1) Protein tyrosine phosphatase 1B (human recombinant) was purchased from Biomol International LP, Plymouth Meeting, PA, USA, and the inhibitory activities of the tested samples were evaluated using the method as described in [31]. Briefly, 0.05−0.1 µg of PTP1B (BIOMOL International L.P., Plymouth Meeting, PA, USA) and 4 mM p-NPP in a buffer containing 1 mMdithiothreitol, 0.1 M NaCl, 1 mM EDTA, and 50 mM citrate (pH 6.0), with or without test compounds, were added as 100 µL of a final volume to each of the 96 wells. After the reaction mixture was incubated at 37 °C for 30 min, 10 M NaOH was added to quench the reaction. PTP1B enzyme activity was determined by the amount of produced p-nitrophenol at 405 nm. […]
contain the PTP1B enzyme. […]
(§2) Data are represented as means ± SD of at least three independent experiments performed in triplicated assays and determined by regression analysis. For statistical analysis of the data for single comparison, the significance between means was determined by the Student’s t test. Sigma Plot program version 11.0 was used for analysis of the kinetic data.

[2] = molecular target: T1, Protein tyrosine phosphatase 1B (human recombinant); experiment: Determination of the inhibition mode (Lineweaver–Burk and Dixon plots); type: biochemical; conditions: p-NPP substrate; for Ki: Dixon plot; for Inhibition Type: Lineweaver–Burk and Dixon plots
Excerpt: The Sigma plot program was used to analyze both the double reciprocal Lineweaver–Burk plot and the Dixon plot by plotting 1/v as a function of the inhibitor (I). […] Table 1 lists the Ki values for these active compounds.
Victor3 V 1420 Multilabel Plate Counter at an excitation and emission wavelength of 485 nm and 535 nm, […]
as §1
contain the PTP1B enzyme.
Determination of the Inhibition Mode of Active Compounds
The Lineweaver–Burk plot and Dixon plot experiments were carried out in the presence and absence of the inhibitors with various concentrations of p-NPP as the substrate. The inhibition modes of the tested compounds were assessed on the basis of their inhibitory effects on the Km ([…]) and Vmax (maximum reaction velocity) of the enzyme, which were determined by the Lineweaver–Burk plot experiment. The Lineweaver–Burk plot is the double reciprocal plot of the enzyme reaction velocity ( V) versus the substrate ( p-NPP) concentration (1/ V versus 1/( p-NPP)).
as §2

3T3-L1 adipocytes = experiment: Adipocyte-based measurement of 2-NBDG uptake; type: cell-based
Excerpt: DM is a metabolic ailment that is categorized by glucose intolerance and deviations of lipid and protein metabolism processes. Previously, 2-NBDG was used as a potential agent to evaluate the action of compounds as insulin mimickers. In our experiment, we examined the activity of the pimarane diterpenes 1–7 on 2-NBDG uptake in the 3T3-L1 adipocytes model. […] Among them, compounds 1, 3, 5, 6, and 7 theoretically stimulated glucose uptake by 1.45–1.51-, 1.56–1.68-, 1.55–1.66-, 1.72–1.83-, and 1.67–1.75-fold of inductions, respectively (Figure 2).
Figure 2 The action of pimarane diterpenes (1–7) on 2-NBDG uptake. Compounds concentrations were 5 and 10 µM; Insulin (100 nM); Control (DMSO). The glucose uptake effect was expressed as the mean ± standard deviation (SD) of three replicates. Statistical significance was accessed by Duncan’s multiple range tests (* p < 0.01; ** p < 0.05). […]
Cell Culture and Induction of 3T3-L1 Adipocytes
3T3-L1 cells were purchased from American Type Culture Collection (ATCC, Manassas, VA, USA) and grown in DMEM with 10% FCS. To induce differentiation, 3T3-L1 pre-adipocytes were cultured until confluence was reached (0 day), and the culture medium was replaced with a fresh induction medium containing 5 µg/mL insulin, 0.5 mM 3-isobutyl-1-methylxanthine (IBMX), and 1 µM dexamethasone (DEX) […]
in DMEM with 10% FBS for 2 days. […]
Adipocyte-Based Measurement of 2-NBDG Uptake
3T3-L1 adipocytes grown in black 96-well plates were incubated with each sample for 24 h at 37 °C in a 5% CO2 atmosphere. Subsequently, 250 µM 2-NBDG (dissolved in PBS with 1% BSA) was added to the cells and incubated for a further 30 min. After incubation, cells were washed two times with PBS to remove excess fluorescence in the wells. Then, fluorescence retained by the cells was measured using a PerkinElmer […]

Row | Molecule | IC50 [1] [µM] | Ki [2] [µM] | Inhibition Type [2] | PTP1B inhibition (in words) (PTP1B) | 2-NBDG uptake, fold of induction (3T3-L1 adipocytes; range over 5 and 10 µM) | also measured
1 | C=C1C[C@@]23CC[C@H]4[C@@](C)(CCC[C@@]4(C)C(=O)O)[C@@H]2CC[C@@H]1C3 [ent-kaur-16-en-19-oic-acid] |  |  |  | significantly inhibited |  | 
2 | C=CC1(C)C=C2CCC3C(C)(CO)CCCC3(C)C2CC1 (stereo not drawn) [ent-pimara-8(14),15-diene-19-ol] |  |  |  | significantly inhibited |  | 
3 | C=C[C@]1(C)C=C2C(CC1)[C@]1(C)CCC[C@@](C)(C(=O)O)C1C[C@@H]2O (stereo partly drawn) [7β-hydroxy-ent-pimara-8(14),15-diene-19-oic acid] |  |  |  | significantly inhibited |  | 
4 | insulin |  |  |  |  |  | 2-NBDG uptake, fold of induction (3T3-L1 adipocytes; positive control at 100 nM): 1.55 ± 0.07 fold
5 | C=CC1(C)CC(OC(=O)c2ccccc2)C2C(O)(C1=O)C(O)CC1C(C)(C)C(OC(C)=O)C(OC(C)=O)C(OC(=O)c3ccccc3)C12CO (stereo not drawn) [Compound 1, siphonol B] | 8.18 ± 0.41 | 52.4 ± 0.9 | mixed-competitive inhibitor; also recorded: mixed-competitive inhibition |  | 1.45–1.51 fold | 
6 | C=C[C@]1(C)C=C2C(=O)C[C@H]3[C@@](C)(CCC[C@@]3(C)C(=O)O)[C@@H]2CC1 [7-oxo-ent-pimara-8(14),15-diene-19-oic acid] |  |  |  | significantly inhibited |  | 
7 | C=C[C@]1(C)C=C2CCC3[C@@](C)(CCC[C@@]3(C)C(=O)O)C2CC1 (stereo partly drawn) [ent-pimara-8(14),15-diene-19-oic acid] |  |  |  | significantly inhibited |  | 
8 | C=CC1(C)CCC2C(O)(CCC3C(C)(CO)CCCC32C)C1 (stereo not drawn) [8α-hydroxy-ent-pimara-15-en-19-ol] |  |  |  | significantly inhibited |  | 

More lines, main results first:

Row | IC50 [1] [µM] | Ki [2] [µM] | Inhibition Type [2] | Molecule | PTP1B inhibition (in words) (PTP1B) | 2-NBDG uptake, fold of induction (3T3-L1 adipocytes; range over 5 and 10 µM) | also measured
9 | 3.82 ± 0.2 | 23.9 ± 1.2 | non-competitive inhibition | C=C[C@@]1(C)C[C@@H](O)[C@H]2[C@](O)(C1=O)[C@H](O)C[C@H]1C(C)(C)[C@H](OC(C)=O)[C@H](OC(C)=O)[C@H](OC(=O)c3ccccc3)[C@@]12C [Compound 5, orthosiphol G] |  | 1.55–1.66 fold | 2-NBDG uptake, fold of induction (3T3-L1 adipocytes; 5 μM): 1.55 ± 0.02 fold
10 | 24.7 ± 1.12 |  |  | C=CC1(C)CC(OC(=O)c2ccccc2)C2C(O)(C1=O)C(O)CC1C(C)(C)C(OC(C)=O)C(OC(C)=O)C(OC(=O)c3ccccc3)C12COC(C)=O (stereo not drawn) [Compound 2, siphonol D] |  | 1.24–1.33 fold | 
11 | 27.6 ± 2.99 |  |  | C=C[C@@]1(C)C[C@@H](OC(=O)c2ccccc2)[C@H]2[C@](O)(C1=O)[C@H](O)C[C@H]1C(C)(C)[C@H](OC(C)=O)[C@H](OC(C)=O)[C@H](OC(=O)c3ccccc3)[C@@]12C [Compound 4, orthosiphol F] |  | 1.28–1.35 fold | 
12 | 9.84 ± 0.33 | 75.6 ± 1.7 | non-competitive inhibition | C=C[C@@]1(C)C[C@@H](OC(=O)c2ccccc2)[C@H]2[C@](O)(C1=O)[C@H](OC(C)=O)C[C@H]1C(C)(C)[C@H](OC(C)=O)[C@H](O)[C@H](OC(=O)c3ccccc3)[C@@]12C [Compound 3, orthosiphol B] |  | 1.56–1.68 fold | 2-NBDG uptake, fold of induction (3T3-L1 adipocytes; 5 μM): 1.56 ± 0.09 fold
13 |  |  | mixed-competitive inhibitor | C[C@H]1[C@H](C)CC[C@]2(C(=O)O)CC[C@]3(C)C(=CC[C@@H]4[C@@]5(C)CC[C@H](O)C(C)(C)[C@@H]5CC[C@]43C)[C@H]12 [Ursolic acid, reference compound] |  |  | 
14 | 1.6 ± 0.17 | 5.5 ± 0.1 | uncompetitive inhibition | C=CC1(C)CC(=O)C2C(O)(C1=O)C(O)CC1C(C)(C)C(OC(=O)c3ccccc3)C(OC(C)=O)C(OC(=O)c3ccccc3)C12C (stereo not drawn) [Compound 7, orthosiphol N] |  | 1.67–1.75 fold | 2-NBDG uptake, fold of induction (3T3-L1 adipocytes; 5 μM): 1.67 ± 0.08 fold
15 | 0.33 ± 0.07 | 1.3 ± 0.6 | competitive inhibition | C=C[C@@]1(C)CC(=O)[C@H]2[C@](O)(C1=O)[C@H](O)C[C@H]1C(C)(C)[C@H](OC(C)=O)[C@H](OC(C)=O)[C@H](OC(=O)c3ccccc3)[C@@]12C [Compound 6, orthosiphol I] |  | 1.72–1.83 fold | 2-NBDG uptake, fold of induction (3T3-L1 adipocytes; 5 μM): 1.72 ± 0.11 fold
